{
  "source": "paper PMC5974752",
  "about": "“Bax/Tubulin/Epithelial-Mesenchymal Pathways Determine the Efficacy of Silybin Analog HM015k in Colorectal Cancer Cell Growth and Metastasis” (Frontiers in Pharmacology, 2018)",
  "key": {"HCT116": {"test_system": "HCT116", "assay": "Cell cycle analysis (PI, flow cytometry)", "type": "cell-based, human", "details": "0, 2 or 4 μM, 12 h, data not shown", "experimental": "Cell cycle analysis was performed as described previously (Pozarowski and Darzynkiewicz, [2004]). Briefly, a 6 well plate was used for the seeding of HCT116 at 1 × 10^6 cells/well. The next day, 15j and 15k (0, 2, or 4 μM) were added and incubated with the seeded cells. After 12 h, the cells were trypsinzed with 0.25% trypsin, 2.21 mM EDTA, 1X, washed, counted and resuspended in 0.5 ml of ice cold PBS. PI stain was added to each suspension for at least 15 min to stain the DNA. The cell cycle analysis and cell distribution for each phase was measured using a BD Accuri™ C6 flow cytometer (BD Biosciences, Becton-Dickinson, San Jose, CA, USA) and analyzed using FCS express 5 plus De Novo software (Glendale, CA, USA)."}, "[1]": {"test_system": "CRC cell lines (HCT116, LOVO, and S1)", "assay": "MTT assay, CRC cell lines together", "type": "cell-based, human", "details": "MTT", "experimental": "(§1) The 3-(4,5-dimethylthiazol-2-yl)-2,5-diphenyltetrazolium bromide (MTT) assay was used to determine the sensitivity of the different CRC cells to the novel silybin derivatives (Hussein et al., [2017]; Manivannan et al., [2017]). The cells were seeded at a density of 4,000–5,000 cells/well in 96 well plates and incubated with serial dilutions of the compounds (0, 0.1, 0.3, 1, 3, 10, 30, and 100 μM). The MTT dye (4 mg/ml) was added after 72 h of incubation and incubated with the cells for an additional 4 h at 37°C. Following incubation, the media was discarded and the formazan crystals were dissolved by adding 100 μL of DMSO to each well. A DTX 880 multimode detector (Beckman Coulter Life, Indianapolis IN, USA) was used to determine the absorbance readings at a wavelength of 570 nm. The IC50 values were determined based on 3 separate experiments, with each experiment done in triplicate. The selectivity of the compounds was determined by comparing their cytotoxicity for CRC to normal epithelial cell lines (CHO, and CRL1459)."}, "HCT116 cells [2]": {"test_system": "HCT116 cells", "assay": "Hoechst staining of nuclear condensation", "type": "cell-based, human", "details": "2 or 4 μM, overnight, vs vehicle", "experimental": "Nuclear condensation was detected using Hoechst 33258 DNA dye. HCT116 cells were seeded at 1 × 10^5 cells/well in 6-well plates and incubated overnight at 37°C. The following day, cells were exposed to 15k or 15j (0, 2, and 4 μM) and further incubated overnight at 37°C. The cells were fixed and stained with Hoechst 33258 for at least 30 min. An EVOS digital microscope was used to detect the stained nucleus fluorescence at wavelengths of 460–490 nm."}, "LOVO cells": {"test_system": "LOVO cells", "assay": "Wound healing assay", "type": "cell-based, human", "details": "2 and 4 μM, 24 h and 48 h, vs vehicle", "experimental": "In brief, the metastatic CRC cells (LOVO) were seeded in 6 well plates and allowed to grow as a monolayer until they reached 100% confluence. Upon confluence, 200 μl sterile tips were used to create a wound by gentle scratching of the complete cell monolayer. Sterile PBS was used to wash the cells several times to remove any floating cells. Different concentrations of the test compound were prepared in the culture media and added immediately after wound formation. The closure of the wound was observed by taking pictures at different time points by an EVOS microscope. Finally, the area of the wounds at different time points was calculated using Image J software (NIH, Bethesda, Maryland, USA)."}, "HCT116 cell": {"test_system": "HCT116 cell", "assay": "Cell morphology (EMT reversal)", "type": "cell-based, human", "details": "HCT116 after incubation with 15k", "experimental": "The aberrant, over-activation of embryonic signaling pathways, including Wnt/β-catenin/epithelial-mesenchymal transition (EMT), is involved in the development, progression, metastasis, and resistance of CRC (Du and Shim, [2016]). […] To test this hypothesis, the morphology of HCT116 cell was observed following incubation with 15k. […] We then determined the efficacy of compound 15k on the expression of (1) β-catenin; (2) E-cadherin, and (3) N-cadherin in CRC cells."}, "HCT116 cells [3]": {"test_system": "HCT116 cells", "assay": "Colony formation assay", "type": "cell-based, human", "details": "2 and 4 μM, 12 h incubation, colonies 10–14 days, vs vehicle control", "experimental": "In this assay, HCT116 cells were seeded in 6 well plates at a density of 250,000 cells/plate and allowed to grow overnight. Compounds 15j and 15k (0, 2 or 4 μM) were added the following day. After 12 h of incubation, the medium was discarded and cells were trypsinized with 0.25% trypsin, 2.21 mM EDTA, 1X, harvested, counted and reseeded in 6 well plates at a low density (500 cell/well). The cells were allowed to form colonies for 10–14 days at 37°C, with the medium being changed every other day. Subsequently, methanol was used to fix the colonies formed in each plate, followed by dyeing the colonies with 0.1% crystal violet dye for 30 min. Finally, colonies were viewed and counted under an EVOS microscope (Themo Fisher Scientific, Wayne, MI, USA). The colony formation rate equation was applied for each compound: Colony formation rate = number of colonies/number of seeded cells × 100 %."}, "HCT116 cells [4]": {"test_system": "HCT116 cells", "assay": "Detection of reactive oxygen species (H2DCF-DA)", "type": "cell-based, human", "details": "1, 2 and 4 μM, 24 and 48 h, vs vehicle", "experimental": "H2DCF-DA was used as previously described (Amawi et al., [2017c]). The cells that had been incubated with the test compound were further incubated with 3 μM of the H2DCF-DA working solution for 30 min at 37°C. The fluorescence level of oxidized DCF (excitation at 485 nm and emission at 535 nm) was detected under EVOS digital fluorescent microscope at 40x."}, "LOVO": {"test_system": "LOVO", "assay": "MTT assay", "type": "cell-based", "details": "Homo sapiens, 72 h incubation, mean ± SD of three experiments, read-out: IC50 ± SD, Colon LOVO", "experimental": "as §1"}, "S1": {"test_system": "S1", "assay": "MTT assay", "type": "cell-based", "details": "Homo sapiens, 72 h incubation, mean ± SD of three experiments, read-out: IC50 ± SD, Colon S1", "experimental": "as §1"}, "HCT116 cells [5]": {"test_system": "HCT116 cells", "assay": "IncuCyte Cytotox green real time cell death", "type": "cell-based, human", "experimental": "For real time quantification of cell death, the Incucyte Cytotox green reagent was used. […] The plasma membrane integrity is decreased in unhealthy cells, allowing entry of the IncuCyte Cytotox reagent, yielding a 100- to 1,000-fold increase in fluorescence upon binding to deoxyribonucleic acid (DNA) (at an excitation maximum of 491 nm and an emission maximum of 509 nm). The HCT116 cells were seeded at a density of 1,000 cell/well and allowed to grow overnight. […] The cells were then incubated in a IncuCyte Zoom live cell imaging apparatus and pictures were taken every 2 h for up to 50 h.The IncuCyte® integrated analysis software was used to quantify the fluorescent objects and minimize the background fluorescence (IncuCyte ZOOM version 2016A, Essen BioScience, Ann Arbor, MI 48108, USA)."}},
  "data": [
    {"molecule": "O=C(/C=C/c1cccc(OCc2ccccc2)c1)c1ccc(O)cc1", "note": "[Compound 15k]", "values": [
      {"measurement": "effect on the cell cycle", "setting": "HCT116", "value": "significant concentration-dependent increase in the number of cells in the G2 and S phases"},
      {"measurement": "IC50", "setting": "[1]; Homo sapiens, range over HCT116, S1 and LOVO, read-out: IC50 in the CRC cells", "value": "1 to 2", "unit": "µM"},
      {"measurement": "selectivity, CRC cells compared to normal cells", "setting": "[1]; vs CRL1459 and CHO", "value": "selectively cytotoxic"},
      {"measurement": "nuclear condensation / fragmentation", "setting": "HCT116 cells [2]", "value": "significant increase in blue fluorescence, as well as highly condensed, fragmented nuclei chromatin"},
      {"measurement": "cell migration, wound closure", "setting": "LOVO cells", "value": "migrated significantly slower"},
      {"measurement": "cell morphology", "setting": "HCT116 cell", "value": "significantly changed the morphology of the cells from mesenchymal to a more epithelial-like appearance"},
      {"measurement": "colony formation rate", "setting": "HCT116 cells [3]", "value": "decreased significantly"},
      {"measurement": "ROS formation (oxidized DCF fluorescence)", "setting": "HCT116 cells [4]", "value": "significantly increased ROS formation"},
      {"measurement": "IC50", "setting": "LOVO", "value": "2.3 ± 0.2", "unit": "µM"},
      {"measurement": "IC50", "setting": "S1", "value": "1.9 ± 0.9", "unit": "µM"},
      {"measurement": "time of significant difference in the number of dead cells", "setting": "HCT116 cells [5]; 2 μM, vs vehicle", "value": 24, "unit": "h"},
      {"measurement": "time of significant increase in cell death", "setting": "HCT116 cells [5]; 4 and 8 μM, vs control cells", "value": 12, "unit": "h"}
    ]}
  ]
}
